PubChem BioAssay AID2060503 (Molecular Pharmacology Branch, DTP, NCI, 2025)

Test system: 817829-284-R-J1-PDC complex spheroids, viability
Assay: Anticancer human tumor 817829-284-R-J1-PDC patient-derived colon adenocarcinoma cell line growth inhibition [GQUAD]
Conditions: for IC50: curve of first compound; for viability, T/C: stronger effect = lower value
Summary of the method: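 Tumor cells were grown as complex spheroids with HUVEC endothelial cells and mesenchymal stem cells as stroma. G-quadruplex stabilizers were combined with targeted agents over half-log dilutions from near the clinical Cmax, or from 10 microM.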

[1] = second compound 0.0316 µM, first compound 0.000999 µM
[2] = second compound 0.0316 µM, first compound 0.00316 µM
[3] = second compound 0.0316 µM, first compound 0.00999 µM
[4] = second compound 0.0316 µM, first compound 0.0316 µM
[5] = second compound 0.0316 µM, first compound 0.0999 µM
[6] = second compound 0.0316 µM, first compound 0.316 µM
[7] = second compound 0.1 µM, first compound 0.000999 µM
[8] = second compound 0.1 µM, first compound 0.00316 µM
[9] = second compound 0.1 µM, first compound 0.00999 µM
[10] = second compound 0.1 µM, first compound 0.0316 µM
[11] = second compound 0.1 µM, first compound 0.0999 µM
[12] = second compound 0.1 µM, first compound 0.316 µM
[13] = second compound 0.316 µM, first compound 0.000999 µM
[14] = second compound 0.316 µM, first compound 0.00316 µM
[15] = second compound 0.316 µM, first compound 0.00999 µM
[16] = second compound 0.316 µM, first compound 0.0316 µM
[17] = second compound 0.316 µM, first compound 0.0999 µM
[18] = second compound 0.316 µM, first compound 0.316 µM
[19] = second compound 1 µM, first compound 0.000999 µM
[20] = second compound 1 µM, first compound 0.00316 µM
[21] = second compound 1 µM, first compound 0.00999 µM
[22] = second compound 1 µM, first compound 0.0316 µM
[23] = second compound 1 µM, first compound 0.0999 µM
[24] = second compound 1 µM, first compound 0.316 µM
[25] = second compound 3.16 µM, first compound 0.000999 µM
[26] = second compound 3.16 µM, first compound 0.00316 µM
[27] = second compound 3.16 µM, first compound 0.00999 µM
[28] = second compound 3.16 µM, first compound 0.0316 µM
[29] = second compound 3.16 µM, first compound 0.0999 µM
[30] = second compound 3.16 µM, first compound 0.316 µM
[31] = second compound 10 µM, first compound 0.000999 µM
[32] = second compound 10 µM, first compound 0.00316 µM
[33] = second compound 10 µM, first compound 0.00999 µM
[34] = second compound 10 µM, first compound 0.0316 µM
[35] = second compound 10 µM, first compound 0.0999 µM
[36] = second compound 10 µM, first compound 0.316 µM
[37] = second compound 0.0316 µM, first compound 0.1 µM
[38] = second compound 0.0316 µM, first compound 1 µM
[39] = second compound 0.0316 µM, first compound 3.16 µM
[40] = second compound 0.0316 µM, first compound 10 µM
[41] = second compound 0.1 µM, first compound 0.1 µM
[42] = second compound 0.1 µM, first compound 1 µM
[43] = second compound 0.1 µM, first compound 3.16 µM
[44] = second compound 0.1 µM, first compound 10 µM
[45] = second compound 0.316 µM, first compound 0.1 µM
[46] = second compound 0.316 µM, first compound 1 µM
[47] = second compound 0.316 µM, first compound 3.16 µM
[48] = second compound 0.316 µM, first compound 10 µM
[49] = second compound 1 µM, first compound 0.1 µM
[50] = second compound 1 µM, first compound 1 µM
[51] = second compound 1 µM, first compound 3.16 µM
[52] = second compound 1 µM, first compound 10 µM
[53] = second compound 3.16 µM, first compound 0.1 µM
[54] = second compound 3.16 µM, first compound 1 µM
[55] = second compound 3.16 µM, first compound 3.16 µM
[56] = second compound 3.16 µM, first compound 10 µM
[57] = second compound 10 µM, first compound 0.1 µM
[58] = second compound 10 µM, first compound 1 µM
[59] = second compound 10 µM, first compound 3.16 µM
[60] = second compound 10 µM, first compound 10 µM
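Note: spheroids exposed to agents for 7 days before readout.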
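Throughout, for viability, T/C: percent viability relative to DMSO vehicle control taken as 100%.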

For `Cc1[nH]c2ccccc2c1CCNCc1ccc(/C=C/C(=O)NO)cc1` + Cc1cnc(CNC(=O)c2c(=O)c3ccc(N4CCCN(C)CC4)nc3n3c2sc2ccccc23)cn1, the IC50 (second compound 0.0316 µM) was 7.25 nM, the IC50 (second compound 0.1 µM) was less than 0.999 nM and the IC50 (second compound 0.316 µM) was less than 0.999 nM. The IC50 (second compound 1 µM) was less than 0.999 nM, the IC50 (second compound 3.16 µM) was less than 0.999 nM and the IC50 (second compound 10 µM) was less than 0.999 nM. The viability, T/C [1] was 83.2%, the viability, T/C [2] was 67.1% and the viability, T/C [3] was 44.2%. It also gave a viability, T/C [4] of 17.7%, a viability, T/C [5] of 5.1% and a viability, T/C [6] of 0.06%. The viability, T/C [7] was 27.4%, the viability, T/C [8] was 31.7% and the viability, T/C [9] was 21.3%. The viability, T/C [10] was 18.4%, the viability, T/C [11] was 6.46% and the viability, T/C [12] was 0.06%. For the same compound, the viability, T/C [13] was 21.5%, the viability, T/C [14] was 24.8% and the viability, T/C [15] was 17.1%. The viability, T/C [16] was 15.9%, the viability, T/C [17] was 4.53% and the viability, T/C [18] was 0.05%. For the same compound, the viability, T/C [19] was 18.3%, the viability, T/C [20] was 20.6% and the viability, T/C [21] was 15.7%. It also gave a viability, T/C [22] of 13.7%, a viability, T/C [23] of 3.62% and a viability, T/C [24] of 0.06%. It also gave a viability, T/C [25] of 15.1%, a viability, T/C [26] of 18.6% and a viability, T/C [27] of 15.4%. For the same compound, the viability, T/C [28] was 11.8%, the viability, T/C [29] was 0.11% and the viability, T/C [30] was 0.1%. The viability, T/C [31] was 0.1%, the viability, T/C [32] was 0.14% and the viability, T/C [33] was 0.2%. For the same compound, the viability, T/C [34] was 0.18%, the viability, T/C [35] was 0.2% and the viability, T/C [36] was 0.2%.
`C=CCn1c(=O)c2cnc(Nc3ccc(N4CCN(C)CC4)cc3)nc2n1-c1cccc(C(C)(C)O)n1` + Cc1cnc(CNC(=O)c2c(=O)c3ccc(N4CCCN(C)CC4)nc3n3c2sc2ccccc23)cn1 showed an IC50 (second compound 0.0316 µM) of 52.9 nM, an IC50 (second compound 0.1 µM) of less than 31.6 nM and an IC50 (second compound 0.316 µM) of less than 31.6 nM. For the same compound, the IC50 (second compound 1 µM) was less than 31.6 nM, the IC50 (second compound 3.16 µM) was less than 31.6 nM and the IC50 (second compound 10 µM) was less than 31.6 nM. It also gave a viability, T/C [4] of 61.2%, a viability, T/C [37] of 35.9% and a viability, T/C [6] of 17.1%. The viability, T/C [38] was 6.1%, the viability, T/C [39] was 4.9% and the viability, T/C [40] was 4.63%. For the same compound, the viability, T/C [10] was 25.2%, the viability, T/C [41] was 25.4% and the viability, T/C [12] was 13.4%. It also gave a viability, T/C [42] of 10.5%, a viability, T/C [43] of 7.47% and a viability, T/C [44] of 6.17%. The viability, T/C [16] was 20.3%, the viability, T/C [45] was 18.2% and the viability, T/C [18] was 15.1%. It also gave a viability, T/C [46] of 10.6%, a viability, T/C [47] of 8.59% and a viability, T/C [48] of 7.12%. For the same compound, the viability, T/C [22] was 16.9%, the viability, T/C [49] was 20.6% and the viability, T/C [24] was 13.9%. It also gave a viability, T/C [50] of 10.2%, a viability, T/C [51] of 7.61% and a viability, T/C [52] of 6.9%. The viability, T/C [28] was 18.4%, the viability, T/C [53] was 17% and the viability, T/C [30] was 14.1%. The viability, T/C [54] was 9.62%, the viability, T/C [55] was 6.71% and the viability, T/C [56] was 6.66%. For the same compound, the viability, T/C [34] was 0.11%, the viability, T/C [57] was 0.15% and the viability, T/C [36] was 0.15%. The viability, T/C [58] was 0.14%, the viability, T/C [59] was 0.17% and the viability, T/C [60] was 0.2%.
Work on `COc1ccc([C@@H](O)c2cc(-c3ncnc4cc(N5CCOCC5)ccc34)c(F)cc2Cl)nn1` + Cc1[nH]c2ccc(F)cc2c1-c1nc2c3cccnc3c3ncccc3c2[nH]1 yielded an IC50 (second compound 0.0316 µM) greater than 10000 nM, an IC50 (second compound 0.1 µM) greater than 10000 nM and an IC50 (second compound 0.316 µM) greater than 10000 nM. The IC50 (second compound 1 µM) was 9780 nM, the IC50 (second compound 3.16 µM) was 2260 nM and the IC50 (second compound 10 µM) was 337 nM. For the same compound, the viability, T/C [4] was 110%, the viability, T/C [37] was 81.3% and the viability, T/C [6] was 103%. For the same compound, the viability, T/C [38] was 79.8%, the viability, T/C [39] was 87.4% and the viability, T/C [40] was 53.6%. It also gave a viability, T/C [10] of 92.1%, a viability, T/C [41] of 111% and a viability, T/C [12] of 93.4%. It also gave a viability, T/C [42] of 99.7%, a viability, T/C [43] of 84.1% and a viability, T/C [44] of 51.4%. The viability, T/C [16] was 82.2%, the viability, T/C [45] was 111% and the viability, T/C [18] was 115%. The viability, T/C [46] was 97.8%, the viability, T/C [47] was 81.5% and the viability, T/C [48] was 51.6%. The viability, T/C [22] was 96.5%, the viability, T/C [49] was 111% and the viability, T/C [24] was 132%. The viability, T/C [50] was 90%, the viability, T/C [51] was 72.6% and the viability, T/C [52] was 48.3%. The viability, T/C [28] was 102%, the viability, T/C [53] was 79% and the viability, T/C [30] was 103%. For the same compound, the viability, T/C [54] was 65.5%, the viability, T/C [55] was 45.1% and the viability, T/C [56] was 26%. It also gave a viability, T/C [34] of 41.2%, a viability, T/C [57] of 82.5% and a viability, T/C [36] of 45.6%. For the same compound, the viability, T/C [58] was 29.6%, the viability, T/C [59] was 33% and the viability, T/C [60] was 7.18%.
For `CC[C@@]1(O)C(=O)OCc2c1cc1n(c2=O)Cc2cc3c(CN(C)C)c(O)ccc3nc2-1` + Cc1cnc(CNC(=O)c2c(=O)c3ccc(N4CCCN(C)CC4)nc3n3c2sc2ccccc23)cn1, the IC50 (second compound 0.0316 µM) was 9.66 nM, the IC50 (second compound 0.1 µM) was less than 0.999 nM and the IC50 (second compound 0.316 µM) was less than 0.999 nM. For the same compound, the IC50 (second compound 1 µM) was less than 0.999 nM, the IC50 (second compound 3.16 µM) was less than 0.999 nM and the IC50 (second compound 10 µM) was less than 0.999 nM. For the same compound, the viability, T/C [1] was 78.1%, the viability, T/C [2] was 61% and the viability, T/C [3] was 54.5%. It also gave a viability, T/C [4] of 33.9%, a viability, T/C [5] of 33.8% and a viability, T/C [6] of 28.5%. For the same compound, the viability, T/C [7] was 29.2%, the viability, T/C [8] was 37.9% and the viability, T/C [9] was 32.2%. The viability, T/C [10] was 31%, the viability, T/C [11] was 28% and the viability, T/C [12] was 23.1%. It also gave a viability, T/C [13] of 24.8%, a viability, T/C [14] of 26.8% and a viability, T/C [15] of 26.9%. It also gave a viability, T/C [16] of 25%, a viability, T/C [17] of 26% and a viability, T/C [18] of 20.5%. For the same compound, the viability, T/C [19] was 20.3%, the viability, T/C [20] was 24.9% and the viability, T/C [21] was 24.4%. It also gave a viability, T/C [22] of 22.9%, a viability, T/C [23] of 23.8% and a viability, T/C [24] of 22.6%. The viability, T/C [25] was 22.5%, the viability, T/C [26] was 21.7% and the viability, T/C [27] was 20.3%. The viability, T/C [28] was 19.2%, the viability, T/C [29] was 20% and the viability, T/C [30] was 16.1%. The viability, T/C [31] was 0.08%, the viability, T/C [32] was 0.14% and the viability, T/C [33] was 0.19%. The viability, T/C [34] was 0.16%, the viability, T/C [35] was 0.22% and the viability, T/C [36] was 0.17%.
